Reference: ChEMBL document CHEMBL3046208, “Natural and synthetic podolactones with potential use as natural herbicide models” (2000)
Activity calls are given as the source filed them. No cut-off for these calls is given here.

Assays:
Triticum aestivum [1] = assay: Stimulation of root length of Triticum aestivum (wheat) at 0.1 mM after 5 days relative to untreated control; format: functional
Solanum lycopersicum [2] = assay: Stimulation of root length of Solanum lycopersicum (tomato) at 0.1 mM after 5 days relative to untreated control; format: functional
Triticum aestivum [3] = assay: Stimulation of shoot length of Triticum aestivum (wheat) at 0.1 mM after 5 days relative to untreated control; format: functional
Solanum lycopersicum [4] = assay: Stimulation of root length of Solanum lycopersicum (tomato) at 10 nM after 5 days relative to untreated control; format: functional
Lactuca sativa [5] = assay: Stimulation of root length of Lactuca sativa cv. Roman (lettuce) at 0.1 mM after 5 days relative to untreated control; format: functional
Hordeum vulgare [6] = assay: Stimulation of shoot length of Hordeum vulgare (barley) at 0.1 mM after 5 days relative to untreated control; format: functional
Lactuca sativa [7] = assay: Inhibition of root length of Lactuca sativa cv. Roman (lettuce) at 0.1 mM after 5 days relative to untreated control; format: functional; conditions: 120 h
Lactuca sativa [8] = assay: Inhibition of shoot length of Lactuca sativa cv. Nigra (lettuce) at 0.1 mM after 5 days relative to untreated control; format: functional; conditions: 120 h
Allium cepa [9] = assay: Inhibition of germination of Allium cepa (onion) at 1 uM after 5 days relative to untreated control; format: functional; conditions: 120 h
Lepidium sativum [10] = assay: Inhibition of shoot length of Lepidium sativum at 0.1 mM after 5 days relative to untreated control; format: functional; conditions: 120 h
Solanum lycopersicum [11] = assay: Stimulation of germination of Solanum lycopersicum (tomato) at 0.1 mM after 5 days relative to untreated control; format: functional
Lepidium sativum [12] = assay: Stimulation of germination of Lepidium sativum at 0.1 mM after 5 days relative to untreated control; format: functional
Triticum aestivum [13] = assay: Inhibition of root length of Triticum aestivum (wheat) at 0.1 mM after 5 days relative to untreated control; format: functional; conditions: 120 h
Hordeum vulgare [14] = assay: Stimulation of germination of Hordeum vulgare (barley) at 0.1 mM after 5 days relative to untreated control; format: functional
Solanum lycopersicum [15] = assay: Stimulation of shoot length of Solanum lycopersicum (tomato) at 0.1 mM after 5 days relative to untreated control; format: functional
Hordeum vulgare [16] = assay: Inhibition of germination of Hordeum vulgare (barley) at 0.1 mM after 5 days relative to untreated control; format: functional; conditions: 120 h
Allium cepa [17] = assay: Inhibition of root length of Allium cepa (onion) at 0.1 mM after 5 days relative to untreated control; format: functional; conditions: 120 h
Lepidium sativum [18] = assay: Inhibition of germination of Lepidium sativum at 0.1 mM after 5 days relative to untreated control; format: functional
Allium cepa [19] = assay: Inhibition of germination of Allium cepa (onion) at 0.1 mM after 5 days relative to untreated control; format: functional; conditions: 120 h
Hordeum vulgare [20] = assay: Inhibition of shoot length of Hordeum vulgare (barley) at 0.1 mM after 5 days relative to untreated control; format: functional
Allium cepa [21] = assay: Inhibition of shoot length of Allium cepa (onion) at 0.1 mM after 5 days relative to untreated control; format: functional; conditions: 120 h
Lactuca sativa [22] = assay: Stimulation of root length of Lactuca sativa cv. Nigra (lettuce) at 0.1 mM after 5 days relative to untreated control; format: functional
Lactuca sativa [23] = assay: Stimulation of germination of Lactuca sativa cv. Roman (lettuce) at 0.1 mM after 5 days relative to untreated control; format: functional
Lepidium sativum [24] = assay: Inhibition of root length of Lepidium sativum at 0.1 mM after 5 days relative to untreated control; format: functional; conditions: 120 h
Allium cepa [25] = assay: Stimulation of shoot length of Allium cepa (onion) at 0.1 mM after 5 days relative to untreated control; format: functional
Lactuca sativa [26] = assay: Stimulation of shoot length of Lactuca sativa cv. Nigra (lettuce) at 0.1 mM after 5 days relative to untreated control; format: functional
Solanum lycopersicum [27] = assay: Inhibition of germination of Solanum lycopersicum (tomato) at 0.1 mM after 5 days relative to untreated control; format: functional
Triticum aestivum [28] = assay: Stimulation of germination of Triticum aestivum (wheat) at 0.1 mM after 5 days relative to untreated control; format: functional
Lepidium sativum [29] = assay: Stimulation of shoot length of Lepidium sativum at 0.1 mM after 5 days relative to untreated control; format: functional
Allium cepa [30] = assay: Stimulation of root length of Allium cepa (onion) at 0.1 mM after 5 days relative to untreated control; format: functional
Solanum lycopersicum [31] = assay: Inhibition of root length of Solanum lycopersicum (tomato) at 0.1 mM after 5 days relative to untreated control; format: functional; conditions: 120 h
Triticum aestivum [32] = assay: Inhibition of germination of Triticum aestivum (wheat) at 0.1 mM after 5 days relative to untreated control; format: functional
Lepidium sativum [33] = assay: Stimulation of root length of Lepidium sativum at 0.1 mM after 5 days relative to untreated control; format: functional
Allium cepa [34] = assay: Stimulation of germination of Allium cepa (onion) at 0.1 mM after 5 days relative to untreated control; format: functional
Hordeum vulgare [35] = assay: Inhibition of root length of Hordeum vulgare (barley) at 0.1 mM after 5 days relative to untreated control; format: functional; conditions: 120 h
Solanum lycopersicum [36] = assay: Inhibition of shoot length of Solanum lycopersicum (tomato) at 0.1 mM after 5 days relative to untreated control; format: functional; conditions: 120 h
Hordeum vulgare [37] = assay: Stimulation of root length of Hordeum vulgare (barley) at 0.1 mM after 5 days relative to untreated control; format: functional
Lactuca sativa [38] = assay: Stimulation of shoot length of Lactuca sativa cv. Roman (lettuce) at 0.1 mM after 5 days relative to untreated control; format: functional
Lactuca sativa [39] = assay: Inhibition of root length of Lactuca sativa cv. Nigra (lettuce) at 0.1 mM after 5 days relative to untreated control; format: functional; conditions: 120 h
Lactuca sativa [40] = assay: Stimulation of germination of Lactuca sativa cv. Nigra (lettuce) at 0.1 mM after 5 days relative to untreated control; format: functional
Lactuca sativa [41] = assay: Inhibition of germination of Lactuca sativa cv. Nigra (lettuce) at 0.1 mM after 5 days relative to untreated control; format: functional; conditions: 120 h
Lactuca sativa [42] = assay: Inhibition of shoot length of Lactuca sativa cv. Roman (lettuce) at 0.1 mM after 5 days relative to untreated control; format: functional; conditions: 120 h
Lactuca sativa [43] = assay: Inhibition of germination of Lactuca sativa cv. Roman (lettuce) at 0.1 mM after 5 days relative to untreated control; format: functional
Triticum aestivum [44] = assay: Inhibition of shoot length of Triticum aestivum (wheat) at 0.1 mM after 5 days relative to untreated control; format: functional
Solanum lycopersicum [45] = assay: Inhibition of germination of Solanum lycopersicum (tomato) at 10 uM after 5 days relative to untreated control; format: functional, organism-based
Solanum lycopersicum [46] = assay: Inhibition of shoot length of Solanum lycopersicum (tomato) at 10 uM after 5 days relative to untreated control; format: functional, organism-based
Lepidium sativum [47] = assay: Inhibition of germination of Lepidium sativum at 10 uM after 5 days relative to untreated control; format: functional, organism-based
Solanum lycopersicum [48] = assay: Inhibition of root length of Solanum lycopersicum (tomato) at 10 uM after 5 days relative to untreated control; format: functional, organism-based
Lepidium sativum [49] = assay: Inhibition of shoot length of Lepidium sativum at 10 uM after 5 days relative to untreated control; format: functional, organism-based
Lepidium sativum [50] = assay: Inhibition of root length of Lepidium sativum at 10 uM after 5 days relative to untreated control; format: functional, organism-based

For `COC(=O)[C@@]1(C)CCC[C@@]2(C)[C@H]1CC[C@H]1COC(=O)C[C@@H]12`, the Activity (Triticum aestivum [1]) was less than 20%, the Activity (Solanum lycopersicum [2]) was greater than 40% and the Activity (Triticum aestivum [3]) was “inactive”. For the same molecule, the Activity (Solanum lycopersicum [4]) was 60%, the Activity (Lactuca sativa [5]) was less than 20% and the Activity (Hordeum vulgare [6]) was “inactive”. For the same molecule, the inhibition at 100 µM (Lactuca sativa [7]) was less than 20%, the inhibition at 100 µM (Lactuca sativa [8]) was 20% and the inhibition at 1 µM (Allium cepa [9]) was -46%. The inhibition at 100 µM (Lepidium sativum [10]) was 20%, the Activity (Solanum lycopersicum [11]) was “inactive” and the Activity (Lepidium sativum [12]) was “inactive”. It also gave an inhibition at 100 µM (Triticum aestivum [13]) of less than 20%, an Activity (Hordeum vulgare [14]) greater than 40% and an Activity (Solanum lycopersicum [15]) of 20%. For the same molecule, the inhibition at 100 µM (Hordeum vulgare [16]) was greater than 40%, the inhibition at 100 µM (Allium cepa [17]) was less than 20% and the inhibition (Lepidium sativum [18]) was “inactive”. For the same molecule, the inhibition at 100 µM (Allium cepa [19]) was 20%, the inhibition (Hordeum vulgare [20]) was “inactive” and the inhibition at 100 µM (Allium cepa [21]) was 20%. For the same molecule, the Activity (Lactuca sativa [22]) was less than 20%, the Activity (Lactuca sativa [23]) was “inactive” and the inhibition at 100 µM (Lepidium sativum [24]) was less than 20%. The Activity (Allium cepa [25]) was 20%, the Activity (Lactuca sativa [26]) was 20% and the inhibition (Solanum lycopersicum [27]) was “inactive”. The Activity (Triticum aestivum [28]) was “inactive”, the Activity (Lepidium sativum [29]) was 20% and the Activity (Allium cepa [30]) was less than 20%. The inhibition at 100 µM (Solanum lycopersicum [31]) was greater than 40%, the inhibition (Triticum aestivum [32]) was “inactive” and the Activity (Lepidium sativum [33]) was less than 20%. The Activity (Allium cepa [34]) was 20%, the inhibition at 100 µM (Hordeum vulgare [35]) was greater than 40% and the inhibition at 100 µM (Solanum lycopersicum [36]) was 20%. The Activity (Hordeum vulgare [37]) was greater than 40%, the Activity (Lactuca sativa [38]) was 20% and the inhibition at 100 µM (Lactuca sativa [39]) was less than 20%. It also gave an Activity (Lactuca sativa [40]) of 20%, an inhibition at 100 µM (Lactuca sativa [41]) of 20% and an inhibition at 100 µM (Lactuca sativa [42]) of 20%. The inhibition (Lactuca sativa [43]) was “inactive” and the inhibition (Triticum aestivum [44]) was “inactive”.
With `CO[C@H]1OC(=O)C=C2C1=C[C@H]1OC(=O)[C@@]3(C)CCC[C@@]2(C)[C@@H]13` the Activity (Triticum aestivum [1]) was greater than 40%, the inhibition (Solanum lycopersicum [45]) was “Active” and the Activity (Solanum lycopersicum [2]) was greater than 40%. For the same molecule, the Activity (Triticum aestivum [3]) was greater than 40%, the Activity (Lactuca sativa [5]) was greater than 40% and the Activity (Hordeum vulgare [6]) was greater than 40%. For the same molecule, the inhibition (Solanum lycopersicum [46]) was “Active”, the inhibition at 100 µM (Lactuca sativa [7]) was greater than 40% and the inhibition at 100 µM (Lactuca sativa [8]) was greater than 40%. For the same molecule, the inhibition at 100 µM (Lepidium sativum [10]) was greater than 40%, the Activity (Solanum lycopersicum [11]) was greater than 40% and the Activity (Lepidium sativum [12]) was 20%. For the same molecule, the inhibition at 100 µM (Triticum aestivum [13]) was greater than 40%, the inhibition (Lepidium sativum [47]) was “Active” and the Activity (Hordeum vulgare [14]) was greater than 40%. For the same molecule, the Activity (Solanum lycopersicum [15]) was greater than 40%, the inhibition (Solanum lycopersicum [48]) was “Active” and the inhibition at 100 µM (Hordeum vulgare [16]) was greater than 40%. For the same molecule, the inhibition at 100 µM (Allium cepa [17]) was greater than 40%, the inhibition at 100 µM (Lepidium sativum [18]; 120 h) was 20% and the inhibition at 100 µM (Allium cepa [19]) was greater than 40%. It also gave an inhibition at 100 µM (Hordeum vulgare [20]; 120 h) greater than 40%, an inhibition at 100 µM (Allium cepa [21]) greater than 40% and an Activity (Lactuca sativa [22]) greater than 40%. It also gave an Activity (Lactuca sativa [23]) greater than 40%, an inhibition at 100 µM (Lepidium sativum [24]) greater than 40% and an Activity (Allium cepa [25]) greater than 40%. It also gave an Activity (Lactuca sativa [26]) greater than 40%, an inhibition at 100 µM (Solanum lycopersicum [27]; 120 h) greater than 40% and an Activity (Triticum aestivum [28]) greater than 40%. The Activity (Lepidium sativum [29]) was greater than 40%, the Activity (Allium cepa [30]) was greater than 40% and the inhibition at 100 µM (Solanum lycopersicum [31]) was greater than 40%. For the same molecule, the inhibition at 100 µM (Triticum aestivum [32]; 120 h) was greater than 40%, the Activity (Lepidium sativum [33]) was greater than 40% and the inhibition (Lepidium sativum [49]) was “Active”. For the same molecule, the Activity (Allium cepa [34]) was greater than 40%, the inhibition at 100 µM (Hordeum vulgare [35]) was greater than 40% and the inhibition at 100 µM (Solanum lycopersicum [36]) was greater than 40%. It also gave an Activity (Hordeum vulgare [37]) greater than 40%, an Activity (Lactuca sativa [38]) greater than 40% and an inhibition at 100 µM (Lactuca sativa [39]) greater than 40%. The Activity (Lactuca sativa [40]) was greater than 40%, the inhibition at 100 µM (Lactuca sativa [41]) was greater than 40% and the inhibition (Lepidium sativum [50]) was “Active”. It also gave an inhibition at 100 µM (Lactuca sativa [42]) greater than 40%, an inhibition at 100 µM (Lactuca sativa [43]; 120 h) greater than 40% and an inhibition at 100 µM (Triticum aestivum [44]; 120 h) greater than 40%.
